In ChEMBL document CHEMBL1133363, “Discovery and evaluation of potent, tyrosine-based alpha4beta1 integrin antagonists” (Bioorg Med Chem Lett, 2000):
Square brackets hold non-standard residues; d marks the D form. Peptide text beside a SMILES is read from it. Thz = O=C(O)[C@@H]1CSCN1

Assays:
[1] = target: T1, Integrin alpha-4/beta-1 (Homo sapiens, UniProt P05556+P13612); assay: Affinity for alpha4-beta1 integrin from HL60 cell lysate; format: cell-based, HL-60
[2] = Half life stability of compound was evaluated in rat plasma; format: ADME, organism-based
[3] = target: T1, Integrin alpha-4/beta-1; assay: Inhibition of alpha4-beta1 VCAM binding in Jurkat cell adhesion assay; format: cell-based
[4] = target: Integrin alpha-5/beta-1 (Homo sapiens, UniProt P05556+P08648); assay: Inhibition of alpha5-beta1 integrin mediated cell adhesion; format: protein-complex assay
Chain of Integrin alpha-5/beta-1 (P05556 21-798 limits assumed): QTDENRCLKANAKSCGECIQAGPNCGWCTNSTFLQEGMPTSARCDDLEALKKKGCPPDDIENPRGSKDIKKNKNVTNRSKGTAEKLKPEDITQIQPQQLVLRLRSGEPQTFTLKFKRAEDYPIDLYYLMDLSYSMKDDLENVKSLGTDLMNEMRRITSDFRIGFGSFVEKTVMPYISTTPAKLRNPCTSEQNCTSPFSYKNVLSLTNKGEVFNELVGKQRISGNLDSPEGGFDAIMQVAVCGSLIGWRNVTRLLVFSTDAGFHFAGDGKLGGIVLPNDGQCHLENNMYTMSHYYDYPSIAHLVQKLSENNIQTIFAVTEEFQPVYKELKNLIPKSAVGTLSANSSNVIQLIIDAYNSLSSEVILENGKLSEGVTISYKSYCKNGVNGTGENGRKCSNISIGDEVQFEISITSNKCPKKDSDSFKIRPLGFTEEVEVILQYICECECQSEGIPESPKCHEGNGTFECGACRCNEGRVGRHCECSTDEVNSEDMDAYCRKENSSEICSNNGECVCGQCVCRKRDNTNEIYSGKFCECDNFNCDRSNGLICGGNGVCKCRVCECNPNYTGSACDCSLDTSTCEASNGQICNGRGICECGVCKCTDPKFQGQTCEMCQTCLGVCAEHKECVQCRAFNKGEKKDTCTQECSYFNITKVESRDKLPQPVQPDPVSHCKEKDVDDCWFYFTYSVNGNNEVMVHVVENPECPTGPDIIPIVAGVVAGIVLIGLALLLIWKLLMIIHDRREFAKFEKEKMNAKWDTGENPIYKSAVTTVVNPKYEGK
Chain of Integrin alpha-5/beta-1 (P08648 42-894 limits assumed): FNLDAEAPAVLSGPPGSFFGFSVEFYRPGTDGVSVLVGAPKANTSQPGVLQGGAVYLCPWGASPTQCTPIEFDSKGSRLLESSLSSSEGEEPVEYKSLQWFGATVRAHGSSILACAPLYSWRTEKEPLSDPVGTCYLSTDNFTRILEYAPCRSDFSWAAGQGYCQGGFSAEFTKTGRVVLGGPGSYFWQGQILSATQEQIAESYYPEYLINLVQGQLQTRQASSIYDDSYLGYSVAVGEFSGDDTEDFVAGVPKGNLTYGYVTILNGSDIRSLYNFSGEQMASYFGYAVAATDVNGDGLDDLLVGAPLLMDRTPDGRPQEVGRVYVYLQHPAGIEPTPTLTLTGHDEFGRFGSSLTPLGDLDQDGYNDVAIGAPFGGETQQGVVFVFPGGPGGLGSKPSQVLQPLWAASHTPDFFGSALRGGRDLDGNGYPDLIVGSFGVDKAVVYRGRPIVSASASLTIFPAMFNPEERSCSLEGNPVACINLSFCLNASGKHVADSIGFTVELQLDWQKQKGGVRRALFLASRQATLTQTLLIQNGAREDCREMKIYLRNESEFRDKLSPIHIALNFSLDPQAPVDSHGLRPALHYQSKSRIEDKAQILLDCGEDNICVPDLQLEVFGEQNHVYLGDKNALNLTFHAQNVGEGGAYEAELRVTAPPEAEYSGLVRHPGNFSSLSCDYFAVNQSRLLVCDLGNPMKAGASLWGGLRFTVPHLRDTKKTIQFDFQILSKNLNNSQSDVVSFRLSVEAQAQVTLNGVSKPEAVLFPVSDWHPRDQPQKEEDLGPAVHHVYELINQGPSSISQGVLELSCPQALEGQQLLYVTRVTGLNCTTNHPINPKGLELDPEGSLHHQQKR
Chain of Integrin alpha-5/beta-1 (P08648 895-1049 limits assumed): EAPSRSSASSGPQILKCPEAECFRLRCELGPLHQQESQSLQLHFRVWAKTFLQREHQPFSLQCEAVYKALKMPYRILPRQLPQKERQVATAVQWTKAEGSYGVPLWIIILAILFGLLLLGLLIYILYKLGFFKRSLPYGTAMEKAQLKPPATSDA

[5] = target: Integrin alpha-M/beta-2 (Homo sapiens, UniProt P05107+P11215); assay: Inhibition of alphaM-beta2 mediated cell adhesion; format: protein-complex assay
Chain of Integrin alpha-M/beta-2 (P05107 23-769 limits assumed, other chains not shown): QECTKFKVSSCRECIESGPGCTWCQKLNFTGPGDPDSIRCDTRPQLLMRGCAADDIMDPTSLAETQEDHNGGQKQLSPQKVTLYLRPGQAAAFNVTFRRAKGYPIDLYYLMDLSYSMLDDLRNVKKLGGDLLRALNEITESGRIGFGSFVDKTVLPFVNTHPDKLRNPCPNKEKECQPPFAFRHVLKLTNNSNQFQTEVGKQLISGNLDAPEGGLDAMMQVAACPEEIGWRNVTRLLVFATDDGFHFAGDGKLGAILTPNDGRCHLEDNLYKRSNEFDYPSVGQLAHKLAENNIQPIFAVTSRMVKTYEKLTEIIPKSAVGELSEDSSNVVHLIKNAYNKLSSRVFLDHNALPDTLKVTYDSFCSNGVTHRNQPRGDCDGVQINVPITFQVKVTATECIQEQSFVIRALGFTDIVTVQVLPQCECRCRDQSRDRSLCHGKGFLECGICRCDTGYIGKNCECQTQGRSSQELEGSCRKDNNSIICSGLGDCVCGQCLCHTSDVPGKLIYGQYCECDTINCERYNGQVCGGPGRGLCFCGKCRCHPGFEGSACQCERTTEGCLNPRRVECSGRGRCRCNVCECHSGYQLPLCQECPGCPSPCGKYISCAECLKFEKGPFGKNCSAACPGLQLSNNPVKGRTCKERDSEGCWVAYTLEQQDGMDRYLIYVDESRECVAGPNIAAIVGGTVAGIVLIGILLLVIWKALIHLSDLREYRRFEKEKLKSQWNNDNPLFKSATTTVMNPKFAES

[6] = target: Integrin alpha-IIb/beta-3 (Homo sapiens, UniProt P05106+P08514); assay: The antagonist activity was evaluated by alphaIlb-beta3 cell assay; format: functional
[7] = target: T2, Integrin alpha-4/beta-7 (Homo sapiens, UniProt P13612+P26010); assay: Inhibition of alpha4-beta7 integrin mediated cell adhesion; format: protein-complex assay
T2 sequence (P13612 whole entry): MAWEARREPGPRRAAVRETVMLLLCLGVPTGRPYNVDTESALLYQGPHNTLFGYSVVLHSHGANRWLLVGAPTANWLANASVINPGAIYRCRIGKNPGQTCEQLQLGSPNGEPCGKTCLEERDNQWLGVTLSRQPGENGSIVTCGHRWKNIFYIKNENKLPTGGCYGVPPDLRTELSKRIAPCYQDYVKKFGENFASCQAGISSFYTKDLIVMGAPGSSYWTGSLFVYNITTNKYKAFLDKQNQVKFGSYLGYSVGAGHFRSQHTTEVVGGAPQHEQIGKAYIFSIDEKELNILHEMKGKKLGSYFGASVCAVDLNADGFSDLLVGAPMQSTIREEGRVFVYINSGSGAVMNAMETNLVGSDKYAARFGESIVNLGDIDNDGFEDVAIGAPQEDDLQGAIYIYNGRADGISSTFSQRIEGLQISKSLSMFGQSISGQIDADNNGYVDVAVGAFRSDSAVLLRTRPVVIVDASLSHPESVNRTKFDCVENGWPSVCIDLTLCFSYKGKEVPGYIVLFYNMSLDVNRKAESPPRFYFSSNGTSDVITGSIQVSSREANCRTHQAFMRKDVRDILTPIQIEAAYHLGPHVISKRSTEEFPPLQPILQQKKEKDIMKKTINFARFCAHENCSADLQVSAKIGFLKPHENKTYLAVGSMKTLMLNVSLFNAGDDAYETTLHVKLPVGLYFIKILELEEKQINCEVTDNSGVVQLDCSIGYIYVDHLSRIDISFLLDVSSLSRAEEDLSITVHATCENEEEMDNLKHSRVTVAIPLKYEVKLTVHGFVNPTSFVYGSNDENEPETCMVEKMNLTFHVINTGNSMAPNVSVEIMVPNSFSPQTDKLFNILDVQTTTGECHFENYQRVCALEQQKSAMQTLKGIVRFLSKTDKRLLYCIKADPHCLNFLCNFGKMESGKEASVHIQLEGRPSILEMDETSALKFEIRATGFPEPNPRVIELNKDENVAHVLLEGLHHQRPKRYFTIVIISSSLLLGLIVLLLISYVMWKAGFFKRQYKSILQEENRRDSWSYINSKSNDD
T2 sequence (P26010 whole entry): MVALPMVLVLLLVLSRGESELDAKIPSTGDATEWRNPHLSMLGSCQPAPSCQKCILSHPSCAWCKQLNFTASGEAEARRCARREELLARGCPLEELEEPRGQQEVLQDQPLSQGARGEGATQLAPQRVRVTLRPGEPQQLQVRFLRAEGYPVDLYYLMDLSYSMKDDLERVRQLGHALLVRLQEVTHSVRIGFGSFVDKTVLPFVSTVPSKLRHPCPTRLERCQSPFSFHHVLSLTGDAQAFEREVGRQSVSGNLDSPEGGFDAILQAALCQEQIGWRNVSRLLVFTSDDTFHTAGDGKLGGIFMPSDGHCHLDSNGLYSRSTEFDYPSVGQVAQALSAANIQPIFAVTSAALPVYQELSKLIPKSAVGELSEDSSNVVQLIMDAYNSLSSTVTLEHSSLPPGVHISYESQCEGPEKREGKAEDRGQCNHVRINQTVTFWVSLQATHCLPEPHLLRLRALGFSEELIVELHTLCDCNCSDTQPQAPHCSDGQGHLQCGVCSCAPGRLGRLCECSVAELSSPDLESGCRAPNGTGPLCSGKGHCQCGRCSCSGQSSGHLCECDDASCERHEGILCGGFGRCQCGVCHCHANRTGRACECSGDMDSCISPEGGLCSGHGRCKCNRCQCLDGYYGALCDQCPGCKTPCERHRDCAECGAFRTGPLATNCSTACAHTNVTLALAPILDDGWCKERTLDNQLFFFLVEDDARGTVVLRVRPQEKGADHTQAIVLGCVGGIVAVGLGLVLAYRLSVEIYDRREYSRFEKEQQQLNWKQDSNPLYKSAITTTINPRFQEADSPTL

[8] = target: Intercellular adhesion molecule (ICAM-1), Integrin alpha-L/beta-2 (Homo sapiens, UniProt P05107+P05362+P20701); assay: Inhibition of alphaL-beta2 mediated cell adhesion; format: protein-complex assay
[9] = target: Integrin alpha-V/beta-3 (Homo sapiens, UniProt P05106+P06756); assay: Inhibition of alphaV-beta3 mediated cell adhesion; format: protein-complex assay

T1 sequence (P05556 whole entry, one chain of several): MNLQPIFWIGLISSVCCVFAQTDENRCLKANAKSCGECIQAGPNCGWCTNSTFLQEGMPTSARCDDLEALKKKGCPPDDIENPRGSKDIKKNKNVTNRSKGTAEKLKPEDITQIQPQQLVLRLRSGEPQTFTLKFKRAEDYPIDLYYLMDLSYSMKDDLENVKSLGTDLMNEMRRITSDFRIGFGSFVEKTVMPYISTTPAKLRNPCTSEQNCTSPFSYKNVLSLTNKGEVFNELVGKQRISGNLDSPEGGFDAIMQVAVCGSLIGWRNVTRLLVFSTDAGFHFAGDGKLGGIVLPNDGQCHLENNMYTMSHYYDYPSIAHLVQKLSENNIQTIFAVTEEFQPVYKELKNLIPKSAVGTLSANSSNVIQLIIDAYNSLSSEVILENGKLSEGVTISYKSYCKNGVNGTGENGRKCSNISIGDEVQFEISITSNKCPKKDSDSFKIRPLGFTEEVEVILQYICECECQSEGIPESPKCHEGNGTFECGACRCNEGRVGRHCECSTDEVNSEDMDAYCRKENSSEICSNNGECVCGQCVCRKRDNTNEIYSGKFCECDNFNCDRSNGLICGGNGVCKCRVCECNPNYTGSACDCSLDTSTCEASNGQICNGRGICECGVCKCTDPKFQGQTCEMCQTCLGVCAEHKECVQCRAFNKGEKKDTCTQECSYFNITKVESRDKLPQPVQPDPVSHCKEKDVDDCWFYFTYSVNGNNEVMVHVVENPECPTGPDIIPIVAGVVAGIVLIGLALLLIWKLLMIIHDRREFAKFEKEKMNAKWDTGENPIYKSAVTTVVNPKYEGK

| Compound | IC50 [1] [nM] | half-life [2] [h] | IC50 [3] [nM] | further results |
| --- | --- | --- | --- | --- |
| CC(=O)N1CSC[C@@H]1C(=O)N[C@@H](Cc1ccc(OCc2cc(Cl)cc(Cl)c2)cc1)C(=O)O | 17 |  | 150 |  |
| CC(=O)N1CSC[C@@H]1C(=O)N[C@@H](Cc1ccc(OCc2ccccc2C(F)(F)F)cc1)C(=O)O | 15 |  | 170 |  |
| CC(=O)N1CSC[C@H]1C(=O)N[C@@H](Cc1ccc(O)cc1)C(=O)O (Ac-[Thz]-Tyr-OH) | 2740 |  | 263000 |  |
| CC(=O)N1CSC[C@H]1C(=O)N[C@@H](Cc1ccccc1)C(=O)O (Ac-[Thz]-Phe-OH) | 360 |  | 35200 |  |
| CC(=O)N1CSC[C@H]1C(=O)N[C@@H](CSCCCNC(=O)C12CC3CC(CC(C3)C1)C2)C(=O)O | 90 |  | 8040 |  |
| CC(=O)N1CSC[C@@H]1C(=O)N[C@@H](Cc1ccc(OCc2ccccc2)cc1)C(=O)O | 25 | > 12 | 1480 |  |
| COc1ccc(C[C@H](NC(=O)[C@@H]2CSCN2C(C)=O)C(=O)O)cc1 (Ac-[Thz]-Tyr(Me)-OH) | 310 |  | 76600 |  |
| CC(=O)N1CSC[C@H]1C(=O)N[C@@H](Cc1ccc(OCc2ccccc2)cc1)C(=O)O | 220 |  | 19500 |  |

Stronger by IC50 [1], values ahead:

| IC50 [1] [nM] | half-life [2] [h] | IC50 [3] [nM] | Compound | further results |
| --- | --- | --- | --- | --- |
| 4 | 1.6 | 170 | CC(=O)N1CSC[C@@H]1C(=O)N[C@@H](Cc1ccc(OC(=O)c2ccccc2)cc1)C(=O)O |  |
| 9 |  | 35 | CC(=O)N1CSC[C@@H]1C(=O)N[C@@H](Cc1ccc(OCc2c(Cl)cc(Cl)cc2Cl)cc1)C(=O)O |  |
| 5 | > 12 | 34 | CC(=O)N1CSC[C@@H]1C(=O)N[C@@H](Cc1ccc(OCc2c(Cl)cccc2Cl)cc1)C(=O)O | IC50 [4]: > 800000 nM; IC50 [5]: > 400000 nM; IC50 [6]: > 400000 nM; IC50 [7]: 190 nM; IC50 [8]: > 200000 nM; IC50 [9]: > 800000 nM |
| 12 | 2.3 | 140 | CC(=O)N1CSC[C@@H]1C(=O)N[C@@H](Cc1ccc(OC(=O)C23CC4CC(CC(C4)C2)C3)cc1)C(=O)O |  |
| 3 |  | 60 | CC(=O)N1CSC[C@@H]1C(=O)N[C@@H](Cc1ccc(OCc2c(F)cccc2F)cc1)C(=O)O |  |
| 6 | > 12 | 24 | CC(=O)N1CSC[C@@H]1C(=O)N[C@@H](Cc1ccc(OC(=O)c2c(Cl)cccc2Cl)cc1)C(=O)O |  |
| 2 |  | 40 | COc1cccc(OC)c1COc1ccc(C[C@H](NC(=O)[C@H]2CSCN2C(C)=O)C(=O)O)cc1 |  |
